Source: patent US11634391B2, “Compounds which are inhibitors of Notum” (UCL BUSINESS LTD, priority 2018, dated 2023)
pIC50: −log10 of the molar value. Structures can show the parent of a compound that is named as a salt.

Molecular target: notum carboxyesterase enzyme (Homo sapiens (Human), UniProt Q6P988)
Assay: Biochemical Notum Enzymatic Activity Assay (OPTS substrate, fluorescence)
Settings: 2 μM OPTS solution, 2.38 nM notum enzyme solution, 1 hour incubation at room temperature, fluorescence ex 485 nm / em 520 nm; n≥2
Text: Plate layout and measured fluorescence values were input into Dotmatics Studies data management tool.

notum carboxyesterase enzyme, sequence (Q6P988 20-496): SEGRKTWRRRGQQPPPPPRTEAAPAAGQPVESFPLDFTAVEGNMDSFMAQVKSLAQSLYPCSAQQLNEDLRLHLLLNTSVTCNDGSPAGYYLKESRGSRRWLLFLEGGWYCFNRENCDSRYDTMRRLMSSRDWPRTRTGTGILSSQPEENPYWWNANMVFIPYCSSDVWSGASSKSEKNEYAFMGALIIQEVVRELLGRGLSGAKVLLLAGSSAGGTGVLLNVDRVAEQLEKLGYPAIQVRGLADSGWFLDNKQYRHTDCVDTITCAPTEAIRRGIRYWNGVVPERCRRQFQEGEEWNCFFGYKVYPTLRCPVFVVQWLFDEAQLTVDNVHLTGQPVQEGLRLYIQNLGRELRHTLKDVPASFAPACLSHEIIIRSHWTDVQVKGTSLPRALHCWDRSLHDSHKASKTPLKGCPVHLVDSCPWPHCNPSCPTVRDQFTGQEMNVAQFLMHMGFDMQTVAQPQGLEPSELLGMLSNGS

pIC50	Molecule
4.68	O=C(O)c1cc(-c2ccc(Cl)cc2)c[nH]1 [Compound 160, 4-(4-chlorophenyl)-1H-pyrrole-2-carboxylic acid]
4.06	Cn1ncc2ccc(-n3cc(CO)nn3)cc21 [Compound 15, (1-(1-methyl-1H-indazol-6-yl)-1H-1,2,3-triazol-4-yl)methanol]
6.34	FC(F)(F)c1cc(-n2cnnn2)ccc1Cl [Compound 215, 1-[4-chloro-3-(trifluoromethyl)phenyl]tetrazole]
5.24	Clc1ccc(-c2cnco2)cc1 [Compound 151, 5-(4-chlorophenyl)oxazole]
4.37	c1nnc(-c2ccc(C3CC3)nc2)o1 [Compound 226, 2-(6-cyclopropyl-3-pyridyl)-1,3,4-oxadiazole]
6.36	Oc1nnc(-c2cc(C3CC3)cc(C(F)(F)F)c2)o1 [Compound 211, 5-[3-cyclopropyl-5-(trifluoromethyl)phenyl]-1,3,4-oxadiazol-2-ol]
4.58	Cn1nc(-c2ccc(Cl)cc2)oc1=O [Compound 229, 5-(4-chlorophenyl)-3-methyl-1,3,4-oxadiazol-2(3H)-one]
4.41	OCc1cn(-c2ccccc2Cl)nn1 [Compound 20, (1-(2-chlorophenyl)-1H-1,2,3-triazol-4-yl)methanol]
4.85	O=c1cc(-c2ccccc2)cc[nH]1 [Compound 236, 4-phenylpyridin-2(1H)-one]
4.57	Clc1ccc(-n2cnnn2)cc1 [Compound 216, 1-(4-chlorophenyl)tetrazole]
4.07	CCOc1cccc(-c2nnc(N)s2)c1 [Compound 48, 5-(3-ethoxyphenyl)-1,3,4-thiadiazol-2-amine]
6.32	OCc1cn(-c2ccc(Cl)c(Cl)c2)nn1 [Compound 19, (1-(3,4-dichlorophenyl)-1H-1,2,3-triazol-4-yl)methanol]
4.59	OCc1cn(-c2cc(Cl)ccc2Cl)nn1 [Compound 26, (1-(2,5-dichlorophenyl)-1H-1,2,3-triazol-4-yl)methanol]
4.68	FC(F)(F)c1cc(-c2nnn[nH]2)ccc1Cl [Compound 212, 5-[4-chloro-3-(trifluoromethyl)phenyl]-1H-tetrazole]
5.97	OCc1cn(-c2ccc(Cl)c(C3CC3)c2)nn1 [Compound 276, (1-(4-chloro-3-cyclopropylphenyl)-1H-1,2,3-triazol-4-yl)methanol]
4.21	ClCc1nnc(-c2ccc(Cl)c(Cl)c2)o1 [Compound 125, 2-(chloromethyl)-5-(3,4-dichlorophenyl)-1,3,4-oxadiazole]
6.87	FC(F)(F)c1c(Cl)ccc(-n2cnnn2)c1Cl [Compound 298, 1-(2,4-dichloro-3-(trifluoromethyl)phenyl)-1H-tetrazole]
4.89	Clc1ccc(-c2nnco2)cn1 [Compound 124, 2-(6-chloropyridin-3-yl)-1,3,4-oxadiazole]
5.12	OCCCc1cn(-c2ccc(Cl)c(C(F)(F)F)c2)nn1 [Compound 302, 3-[1-[4-chloro-3-(trifluoromethyl)phenyl]triazol-4-yl]propan-1-ol]
6.01	O=C(O)c1cn(-c2ccc(Cl)c(C(F)(F)F)c2)nn1 [Compound 58, 1-(4-chloro-3-(trifluoromethyl)phenyl)-1H-1,2,3-triazole-4-carboxylic acid]
7.00	FC(F)(F)c1cc(-n2ccnn2)ccc1Cl [Compound 175, 1-[4-chloro-3-(trifluoromethyl)phenyl]triazole]
6.59	FC(F)(F)c1ccc(-c2nnco2)cc1C1COC1 [Compound 181, 2-[3-(oxetan-3-yl)-4-(trifluoromethyl)phenyl]-1,3,4-oxadiazole]
4.71	CC(=O)NCc1cn(-c2ccc(Cl)c(Cl)c2)nn1 [Compound 42, N-((1-(3,4-dichlorophenyl)-1H-1,2,3-triazol-4-yl)methyl)acetamide]
5.87	FC(F)(F)c1cc(-c2cc[nH]n2)ccc1Cl [Compound 51, 3-(4-chloro-3-(trifluoromethyl)phenyl)-1H-pyrazole]
6.85	OCc1nnc(-c2ccc(Cl)c(C(F)(F)F)c2)o1 [Compound 296, (5-(4-chloro-3-(trifluoromethyl)phenyl)-1,3,4-oxadiazol-2-yl)methanol]

pIC50	Molecule
8.44	[2H]C([2H])([2H])Oc1nnc(-c2ccc(Cl)c(C(F)(F)F)c2Cl)o1 [Compound 241, 2-(2,4-dichloro-3-(trifluoromethyl)phenyl)-5-(methoxy-d3)-1,3,4-oxadiazole]
7.52	O=C(O)c1cn(-c2ccc(Cl)c(C(F)(F)F)c2Cl)nn1 [Compound 304, 1-[2,4-dichloro-3-(trifluoromethyl)phenyl]triazole-4-carboxylic acid]
6.97	Cc1cn(-c2ccc(Cl)c(C(F)(F)F)c2Cl)nn1 [Compound 301, 1-(2,4-dichloro-3-(trifluoromethyl)phenyl)-4-methyl-1H-1,2,3-triazole]
4.16	OCc1cn(Cc2ccc(Cl)cc2)nn1 [Compound 162, (1-(4-chlorobenzyl)-1H-1,2,3-triazol-4-yl)methanol]
4.36	Oc1nnc(-c2ccc(C3CC3)nc2)o1 [Compound 209, 5-(6-cyclopropyl-3-pyridyl)-1,3,4-oxadiazol-2-ol]
8.02	OCc1cn(-c2ccc(Cl)c(C(F)(F)F)c2Cl)nn1 [Compound 277, [1-[2,4-dichloro-3-(trifluoromethyl)phenyl]triazol-4-yl]methanol]
4.67	CC(C)c1ccc(-n2cnnn2)cc1 [Compound 217, 1-(4-isopropylphenyl)tetrazole]
7.92	Nc1nnc(-c2ccc(Cl)c(C(F)(F)F)c2Cl)o1 [Compound 248, 5-[2,4-dichloro-3-(trifluoromethyl)phenyl]-1,3,4-oxadiazol-2-amine]
4.08	FC(F)(F)c1cccc(-c2nnco2)n1 [Compound 221, 2-[6-(trifluoromethyl)-2-pyridyl]-1,3,4-oxadiazole]
5.09	FC(F)(F)c1cc(-c2nnco2)ccn1 [Compound 222, 2-[2-(trifluoromethyl)-4-pyridyl]-1,3,4-oxadiazole]
6.00	CC(C)c1ccc(-n2ccnn2)cc1 [Compound 60, 1-(4-isopropylphenyl)-1H-1,2,3-triazole]
4.82	NCc1cc(-c2cccc(Cl)c2)no1 [Compound 147, (3-(3-chlorophenyl)isoxazol-5-yl)methanamine]
< 5.00	CC(C)(O)c1cn(-c2ccc(Cl)c(Cl)c2)nn1 [Compound 41, 2-(1-(3,4-dichlorophenyl)-1H-1,2,3-triazol-4-yl)propan-2-ol]
4.13	CN(C)Cc1cn(-c2ccc(Cl)c(Cl)c2)nn1 [Compound 44, 1-(1-(3,4-dichlorophenyl)-1H-1,2,3-triazol-4-yl)-N,N-dimethylmethanamine hydrochloride]
5.05	NCc1cn(-c2ccc(Cl)c(Cl)c2)nn1 [Compound 31, (1-(3,4-dichlorophenyl)-1H-1,2,3-triazol-4-yl)methanamine]
5.27	COc1nnc(-c2cccc(Cl)c2)o1 [Compound 176, 2-(3-chlorophenyl)-5-methoxy-1,3,4-oxadiazole]
5.31	FC(F)(F)c1cccc(-n2cnnn2)c1 [Compound 213, 1-[3-(trifluoromethyl)phenyl]tetrazole]
6.39	N#CCn1nc(-c2ccc(Cl)c(C(F)(F)F)c2Cl)oc1=O [Compound 244, 2-(5-(2,4-dichloro-3-(trifluoromethyl)phenyl)-2-oxo-1,3,4-oxadiazol-3(2H)-yl)acetonitrile]
6.09	Cc1ccc(-n2cc(CO)nn2)cc1C [Compound 5, (1-(3,4-dimethylphenyl)-1H-1,2,3-triazol-4-yl)methanol]
5.39	FC(F)(F)c1cc(-c2nnco2)ccc1C1COC1 [Compound 284, 2-(4-(oxetan-3-yl)-3-(trifluoromethyl)phenyl)-1,3,4-oxadiazole]
7.05	Cc1nnc(-c2ccc(C3CC3)c(C(F)(F)F)c2)o1 [Compound 190, 2-[4-cyclopropyl-3-(trifluoromethyl)phenyl]-5-methyl-1,3,4-oxadiazole]
4.28	OCc1cn(-c2ccc3nccnc3c2)nn1 [Compound 12, (1-(quinoxalin-6-yl)-1H-1,2,3-triazol-4-yl)methanol]
5.81	Clc1ccc(-n2cnnn2)cc1Cl [Compound 214, 1-(3,4-dichlorophenyl)tetrazole]
5.02	OCc1cn(-c2cccc(Cl)c2)nn1 [Compound 21, (1-(3-chlorophenyl)-1H-1,2,3-triazol-4-yl)methanol]
7.03	OCc1cn(-c2ccc(Cl)c(C(F)(F)F)c2)nn1 [Compound 9, (1-(4-chloro-3-(trifluoromethyl)phenyl)-1H-1,2,3-triazol-4-yl)methanol]

Molecule	pIC50
4-(4-(1,3,4-oxadiazol-2-yl)-2-(trifluoromethyl)phenyl)pyrrolidine [Compound 280]	6.39
N#Cc1nnc(-c2ccccc2)o1 [Compound 132, 5-phenyl-1,3,4-oxadiazole-2-carbonitrile]	4.73
FC(F)(F)c1c(Cl)cnc(-n2ccnn2)c1Cl [Compound 307, 3,5-dichloro-2-(triazol-1-yl)-4-(trifluoromethyl)pyridine]	8.09
Nc1nnc(-c2ccc(Cl)cc2)s1 [Compound 168, 5-(4-chlorophenyl)-1,3,4-thiadiazol-2-amine]	5.08
Nc1nnc(-c2ccccc2)o1 [Compound 137, 5-phenyl-1,3,4-oxadiazol-2-amine]	4.48
CC(O)Cc1cn(-c2ccc(Cl)c(C(F)(F)F)c2Cl)nn1 (centres unmarked) [Compound 305, 1-[1-[2,4-dichloro-3-(trifluoromethyl)phenyl]triazol-4-yl]propan-2-ol]	5.88
Clc1ccc(-c2ccno2)cc1 [Compound 150, 5-(4-chlorophenyl)isoxazole]	5.96
NCc1nc(-c2ccc(Cl)cc2)no1 [Compound 152, [3-(4-chlorophenyl)-1,2,4-oxadiazol-5-yl]methanamine]	4.37
O=c1cccc(-c2ccccc2)[nH]1 [Compound 237, 6-phenylpyridin-2(1H)-one]	4.30
